# Experiments:
# [1] = tested on: primary neurons; test: CCK8 cell viability (toxicity) assay in primary neurons; format: cell-based, mouse; conditions: Mus musculus, Primary neuron, CCK8 toxicity test
# Text: (§1) The CCK8 cell viability assay (CCK8) was adopted. Its principle is mainly based on the reduction reaction of WST-8 (chemical name: 2-(2-methoxy-4-nitrophenyl)-3-(4-nitrophenyl)-5-(2,4-disulfophenyl)-2H-tetrazolium monosodium salt). In the presence of living cells, WST-8 can be reduced by dehydrogenases in mitochondria to generate a highly water-soluble orange-yellow formazan product. The color intensity is directly proportional to the number of living cells, wherein the quantity of living cells can be indirectly reflected by measuring the absorbance of formazan products (typically at a wavelength of 450 nm). The CCK-8 assay is widely used in cell proliferation assay, cytotoxicity assay and tumor drug sensitivity test.
# Primary hippocampal neuron culture: After ICR fetal mice at 18-21 days of gestation (E18-E21) were anesthetized, the fetal mice were dissected in a clean area and immersed in 75% ethanol for 1-2 min. The mouse head was taken out, the surface skull was removed with micro-scissors, and the brain tissue was transferred to an anatomical dissociation solution. Under a microscope, blood vessels and meninges were removed, hippocampal tissue was isolated, the extracted hippocampal tissue was placed in a 3.5 cm dish containing the anatomical dissociation solution, and the hippocampal tissue was cut into small fragments using micro-scissors. The minced hippocampal tissue was transferred to a 7 ml EP tube using a pipette gun. The hippocampal tissue hereinabove was centrifuged at 1000 rpm for 3-5 min, and the anatomical separation solution was discarded. 0.5-1 ml of papain digestion solution was added to the EP tube hereinabove, and the EP tube was placed in a 37°C incubator for 30 min. 300 µL of Trituration buffer 300 (DNase) and 5 mL of complete medium were added, and the hippocampal tissue was gently pipetted more than 10 times. The cell suspension was allowed to stand for 3 min, and 3-4 ml of supernatant was gently aspirated into a 15 ml tube using a pipette. 3-4 ml of complete medium was added again, and the hippocampal tissue was gently pipetted more than 10 times. Step 8 was repeated, and 3-4 ml of supernatant was transferred to the same 15 ml tube again. The previous step was repeated again. The collected supernatant was centrifuged at 1000 rpm, the supernatant was discarded, and 5 ml of complete medium was added. The mixture was gently pipetted and suspended, and then centrifuged again at 1000 rpm for 5 min. The complete medium was added to resuspend the cells, and then a portion of the cells was aspirated for counting. Generally, when neuronal cells were planted in a 24-well plate, the concentration of the cell suspension was generally 2×10^5/ml, and 500 µl of cells is inoculated per well. The resuspended neuron cells with a diluted ratio were seeded onto a glass slide treated with PDL, then the glass slide was placed in a 37°C incubator for 10 min, an appropriate amount of complete medium was added, and then the culture is continued in the incubator.
# [2] = tested on: 293T cell line; test: CCK8 cell viability (toxicity) assay in 293T cell line; format: cell-based; conditions: Homo sapiens, HEK-293T; CCK8 toxicity test, 293T cell line
# Text: as §1
# In in vitro experiments, the compound stock solution was prepared into 10 mM with DMSO and diluted with a culture medium before use. The 293T cell line was used for preliminary concentration screening of the compound, wherein concentration gradients were set as follows: 5 µmol, 10 µmol, 20 µmol, 40 µmol, 80 µmol and 160 µmol. After the cells were treated with the compound for 24 h, the CCK8 detection kit was used, wherein the cell viability was calculated based on the absorbance values detected by a microplate reader. Data processing was performed using GraphPad Prism software to plot the IC50 curve.
structure (smiles),measurement,setting,value
"O=C(NC1CN(c2ccncn2)CC1CO)c1ccc2ncccc2c1 (centres unmarked) [compound of Formula II, N-[4-(HYDROXYMETHYL)-1-(PYRIMIDIN-4-YL)PYRROLIDIN-3-YL]QUINOLINE-6-CARBOXAMIDE]",IC50,[1],1.67 µM
same,IC50,[2],38.6 µM
